From patent publication US20260166039A1 (SCHRÖDINGER, INC., priority 2022, published 2026)

Legend:
[1] = tested on: phosphorylation of Cdc2 Y15 (Wee1 substrate) in A427 cells; assay: Phosphorylated Cdc2 MSD Electrochemiluminescence Assay; type: cell-based; details: Homo sapiens, A-427, class symbols, read-out: A427 pCDC2 MSD IC50
In short: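 Read-out: percent residual phospho-Cdc2 Y15 relative to DMSO and positive-control Wee1 inhibitor, measured by MSD electrochemiluminescence capture/detection antibody assay in cell lysates. A427 cells received duplicate 3-fold compound dilution series 20 h post-seeding, with 6 h total incubation at 37 °C.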

Wee1 kinase domain = biological target: T1, Wee1 kinase domain (Homo sapiens, UniProt P30291); assay: Wee1 Kinase Biochemical Assay (ADP-Glo); details: class symbols; 1 nM Wee1 enzyme, 15 uM ATP, 4 hours at 25° C.
T1 construct: Wee1 kinase domain was purchased from Carna (catalog #05-177); purchased Carna 05-177
T1 sequence (P30291 299-569 limits assumed): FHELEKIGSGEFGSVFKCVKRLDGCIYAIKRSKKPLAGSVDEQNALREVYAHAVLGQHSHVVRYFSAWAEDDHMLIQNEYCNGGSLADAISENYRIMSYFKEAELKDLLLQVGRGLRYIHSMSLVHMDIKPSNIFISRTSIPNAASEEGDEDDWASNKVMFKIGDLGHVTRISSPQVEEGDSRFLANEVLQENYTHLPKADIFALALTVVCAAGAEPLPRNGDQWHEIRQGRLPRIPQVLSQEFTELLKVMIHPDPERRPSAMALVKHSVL
In short: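 Compounds tested against 1 nM Wee1 kinase domain in Tris buffer containing 20 mM MgCl2, BSA and 2 mM DTT, with 15 uM ATP and poly(Lys,Tyr) substrate for 4 h at 25 °C. Luminescent ADP detection gave percent inhibition, normalized to DMSO and saturating inhibitor.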

CN1C[C@H]2C[C@@H]1CN2c1ccc(Nc2ncc3c(n2)N(c2cccc(N=S(C)(C)=O)c2)[C@@H]2CC(C)(C)OC[C@]32C)cc1 [Example 713, dimethyl((3-((4bR,8aR)-4b,7,7-trimethyl-2-((4-((1R,4R)-5-methyl-2,5-diazabicyclo[2.2.1]heptan-2-yl)phenyl)amino)-4b,7,8,8a-tetrahydropyrano[3′,4′:4,5]pyrrolo[2,3-d]pyrimidin-9(5H)-yl)phenyl)imino)-16-sulfanone]
IC50 [1]: 0.1 to 1 µM
IC50 (Wee1 kinase domain): < 0.01 µM

CN1CCC(n2cc(Nc3ncc4c(n3)N(c3cccc(N=S(C)(C)=O)c3)[C@@H]3CC(C)(C)OC[C@]43C)cn2)CC1 [Example 716, dimethyl((3-((4bR,8aR)-4b,7,7-trimethyl-2-((1-(1-methylpiperidin-4-yl)-1H-pyrazol-4-yl)amino)-4b,7,8,8a-tetrahydropyrano[3′,4′:4,5]pyrrolo[2,3-d]pyrimidin-9(5H)-yl)phenyl)imino)-16-sulfanone]
IC50 [1]: 1 to 10 µM
IC50 (Wee1 kinase domain): < 0.01 µM

CC1(C)C[C@H]2N(c3cccc([C@H]4COCCN4)n3)c3nc(Nc4ccc(N5CCOCC5)cc4)ncc3[C@@]2(C)CO1 [Example 731, (4bR,8aR)-4b,7,7-trimethyl-9-(6-((S)-morpholin-3-yl)pyridin-2-yl)-N-(4-morpholinophenyl)-4b,5,7,8,8a,9-hexahydropyrano[3′,4′:4,5]pyrrolo[2,3-d]pyrimidin-2-amine]
IC50 [1]: 0.1 to 1 µM
IC50 (Wee1 kinase domain): < 0.01 µM

CC1(C)C[C@H]2N(c3cccc([C@@H]4COCCN4)n3)c3nc(Nc4ccc(N5CCOCC5)cc4)ncc3[C@@]2(C)CO1 [Example 734, (4bR,8aR)-4b,7,7-trimethyl-9-(6-((R)-morpholin-3-yl)pyridin-2-yl)-N-(4-morpholinophenyl)-4b,5,7,8,8a,9-hexahydropyrano[3′,4′:4,5]pyrrolo[2,3-d]pyrimidin-2-amine]
IC50 [1]: < 0.1 µM
IC50 (Wee1 kinase domain): < 0.01 µM

CC1(C)C[C@H]2N(c3cccc([C@H]4CNCCO4)n3)c3nc(Nc4ccc(N5CCOCC5)cc4)ncc3[C@@]2(C)CO1 [Example 737, (4bR,8aR)-4b,7,7-trimethyl-9-(6-((R)-morpholin-2-yl)pyridin-2-yl)-N-(4-morpholinophenyl)-4b,5,7,8,8a,9-hexahydropyrano[3′,4′:4,5]pyrrolo[2,3-d]pyrimidin-2-amine]
IC50 [1]: 0.1 to 1 µM
IC50 (Wee1 kinase domain): < 0.01 µM

CN[C@H](c1cccc(N2c3nc(Nc4ccc(N5CCN(C)CC5)cc4)ncc3[C@@]3(C)COC(C)(C)C[C@@H]23)n1)C(F)(F)F [Example 755, (4bR,8aR)-4b,7,7-trimethyl-N-(4-(4-methylpiperazin-1-yl)phenyl)-9-(6-((R)-2,2,2-trifluoro-1-(methylamino)ethyl)pyridin-2-yl)-4b,5,7,8,8a,9-hexahydropyrano[3′,4′:4,5]pyrrolo[2,3-d]pyrimidin-2-amine]
IC50 [1]: 0.1 to 1 µM
IC50 (Wee1 kinase domain): < 0.01 µM

CN[C@@H](c1cccc(N2c3nc(Nc4ccc(N5CCN(C)CC5)cc4)ncc3[C@@]3(C)COC(C)(C)C[C@@H]23)n1)C(F)(F)F [Example 756, (4bR,8aR)-4b,7,7-trimethyl-N-(4-(4-methylpiperazin-1-yl)phenyl)-9-(6-((S)-2,2,2-trifluoro-1-(methylamino)ethyl)pyridin-2-yl)-4b,5,7,8,8a,9-hexahydropyrano[3′,4′:4,5]pyrrolo[2,3-d]pyrimidin-2-amine]
IC50 [1]: 0.1 to 1 µM
IC50 (Wee1 kinase domain): < 0.01 µM

CNCc1cccc(N2c3nc(NC(=O)[C@@H]4C[C@H]4c4ccccc4)ncc3[C@@]3(C)COC(C)(C)C[C@@H]23)n1 [Example 760, (1R,2R)-2-phenyl-N-((4bR,8aR)-4b,7,7-trimethyl-9-(6-((methylamino)methyl)pyridin-2-yl)-4b,5,7,8,8a,9-hexahydropyrano[3′,4′:4,5]pyrrolo[2,3-d]pyrimidin-2-yl)cyclopropane-1-carboxamide]
IC50 [1]: 0.1 to 1 µM
IC50 (Wee1 kinase domain): < 0.01 µM

CNCc1cccc(N2c3nc(NC(=O)[C@@H]4C[C@H]4c4cnn(C)c4)ncc3[C@@]3(C)COC(C)(C)C[C@@H]23)n1 [Example 764, (1R,2R)-2-(1-methyl-1H-pyrazol-4-yl)-N-((4bR,8aR)-4b,7,7-trimethyl-9-(6-((methylamino)methyl)pyridin-2-yl)-4b,5,7,8,8a,9-hexahydropyrano[3′,4′:4,5]pyrrolo[2,3-d]pyrimidin-2-yl)cyclopropane-1-carboxamide]
IC50 [1]: 0.1 to 1 µM
IC50 (Wee1 kinase domain): < 0.01 µM

CNCc1cccc(N2c3nc(NC(=O)[C@@H]4C[C@H]4c4cccnc4)ncc3[C@@]3(C)COC(C)(C)C[C@@H]23)n1 [Example 768, (1R,2R)-2-(pyridin-3-yl)-N-((4bR,8aR)-4b,7,7-trimethyl-9-(6-((methylamino)methyl)pyridin-2-yl)-4b,5,7,8,8a,9-hexahydropyrano[3′,4′:4,5]pyrrolo[2,3-d]pyrimidin-2-yl)cyclopropane-1-carboxamide]
IC50 [1]: 0.1 to 1 µM
IC50 (Wee1 kinase domain): < 0.01 µM

CN=[S@](C)(=O)c1cccc(N2c3nc(Nc4ccc(N5CC6(CN(C)C6)C5)cc4)ncc3[C@@]3(C)COC(C)(C)C[C@@H]23)n1 [Example 770, (R)-methyl(methylimino)(6-((4bR,8aR)-4b,7,7-trimethyl-2-((4-(6-methyl-2,6-diazaspiro[3.3]heptan-2-yl)phenyl)amino)-4b,7,8,8a-tetrahydropyrano[3′,4′:4,5]pyrrolo[2,3-d]pyrimidin-9(5H)-yl)pyridin-2-yl)-16-sulfanone]
IC50 [1]: 0.1 to 1 µM
IC50 (Wee1 kinase domain): < 0.01 µM

CN=[S@@](C)(=O)c1cccc(N2c3nc(Nc4ccc(N5CC6(CN(C)C6)C5)cc4)ncc3[C@@]3(C)COC(C)(C)C[C@@H]23)n1 [Example 771, (S)-methyl(methylimino)(6-((4bR,8aR)-4b,7,7-trimethyl-2-((4-(6-methyl-2,6-diazaspiro[3.3]heptan-2-yl)phenyl)amino)-4b,7,8,8a-tetrahydropyrano[3′,4′:4,5]pyrrolo[2,3-d]pyrimidin-9(5H)-yl)pyridin-2-yl)-16-sulfanone]
IC50 [1]: 0.1 to 1 µM
IC50 (Wee1 kinase domain): < 0.01 µM

CN1C[C@@H]2C[C@H]1CN2c1ccc(Nc2ncc3c(n2)N(c2cccc(P(C)(C)=O)n2)[C@@H]2CC(C)(C)OC[C@]32C)cc1 [Example 777, dimethyl(6-((4bR,8aR)-4b,7,7-trimethyl-2-((4-((1S,4S)-5-methyl-2,5-diazabicyclo[2.2.1]heptan-2-yl)phenyl)amino)-4b,7,8,8a-tetrahydropyrano[3′,4′:4,5]pyrrolo[2,3-d]pyrimidin-9(5H)-yl)pyridin-2-yl)phosphine oxide]
IC50 [1]: 1 to 10 µM
IC50 (Wee1 kinase domain): < 0.01 µM

CN1C[C@H]2C[C@@H]1CN2c1ccc(Nc2ncc3c(n2)N(c2cccc(P(C)(C)=O)n2)[C@@H]2CC(C)(C)OC[C@]32C)cc1 [Example 778, dimethyl(6-((4bR,8aR)-4b,7,7-trimethyl-2-((4-((1R,4R)-5-methyl-2,5-diazabicyclo[2.2.1]heptan-2-yl)phenyl)amino)-4b,7,8,8a-tetrahydropyrano[3′,4′:4,5]pyrrolo[2,3-d]pyrimidin-9(5H)-yl)pyridin-2-yl)phosphine oxide]
IC50 [1]: 0.1 to 1 µM
IC50 (Wee1 kinase domain): < 0.01 µM

CC1(C)C[C@H]2N(c3cccc(P(C)(C)=O)n3)c3nc(Nc4ccn([C@H]5CCOC5)c(=O)c4)ncc3[C@@]2(C)CO1 [Example 782, 4-(((4bR,8aR)-9-(6-(dimethylphosphoryl)pyridin-2-yl)-4b,7,7-trimethyl-4b,5,7,8,8a,9-hexahydropyrano[3′,4′:4,5]pyrrolo[2,3-d]pyrimidin-2-yl)amino)-1-((S)-tetrahydrofuran-3-yl)pyridin-2(1H)-one]
IC50 [1]: < 0.1 µM
IC50 (Wee1 kinase domain): < 0.01 µM
